According to patent US20060128708A1, “Antagonizing an adenosine A2A receptor to ameliorate one or more components of addictive behavior” (priority 2004, published 2006):
≈ marks a conversion by molar mass, not a printed value. Entries after “also recorded” stand apart in the source; their conditions may differ. Each block holds one compound with its values, some of them ahead of it.

Columns and labels:
[1] = tested on: Male Long Evans rats; assay: Ethanol operant self-administration in rats (30 min FR3 session, 10% EtOH); format: in vivo, rat
Experimental: Separate groups of rats were given the D2 antagonist eticlopride (0.005, 0.007, 0.01 mg/kg), the A2A antagonist DMPX (1, 3, 5, 7, 10 and 20 mg/kg) and the Al antagonist DPCPX (0.125, 0.25, 0.5 mg/kg) by systemic injections.
Male Long Evans rats (Harlan, Indianapolis, Ind.) weighing approximately 250 g at the beginning of the studies, were individually housed with food and water available ad libitum except when stated otherwise. They were maintained on a 12 h light/dark cycle, lights on at 7:00 am. Operant training occurred between 8:30 am and 2:00 pm. The experimental procedures were approved in advance by our Institutional Animal Care and Use Committee.
(§1) EtOH dilution (10% v/v) for self-administration was made up using 95% ethyl alcohol and tap water. Sucrose (Saccharose, Fisher Scientific, Fair Lawn, N.J., USA) solution (10% w/v) was made up with tap water. All the compounds tested were obtained from Sigma Chemical Co. (St. Louis, Mo.). The A2A antagonist DMPX (3,7-Dimethyl-1-propargylxanthine) was dissolved in warm saline. The A1 antagonist DPCPX (8-Cyclopentyl-1,3-dipropylxanthine) was dissolved in 20:80 v/v mixture of Alkamuls EL-620 (Rhodia Inc., Cranbury, N.J., USA) and phosphate buffered saline. The D2 antagonist, eticlopride, was dissolved in saline. Drugs were administered in a 1 ml/kg volume except for the group tested with 5, 7 and 20 mg/kg DMPX, in which the injection volume was 2 ml/kg as the highest DMPX soluble concentration achieved was 10 mg/ml. Drugs were prepared fresh every treatment day.
EtOH operant self-administration was carried out in standard operant chambers (Med Associates, Georgia, Vt.) housed in sound-attenuated cubicles. Each chamber (33×30.5×33 cm) contained two retractable levers against the right wall, 7 cm from the floor and 1 cm from the right or left edge of the right wall, respectively. One recessed dish positioned at 2.5 cm above floor level and 6 cm from the levers towards the center of the chamber was the reinforcer receptacle. Fluid (0.1 ml) was delivered from syringe pumps upon activation of 1 of the 2 retractable response levers. A 3 sec tone was activated upon lever pressing. […] The beginning of a training session was signaled by the onset of the house light located in the center of the wall facing the levers, at 27.2 cm above the floor. A computer controlled stimulus and fluid delivery and recorded operant responses.
Before the beginning of EtOH operant self-administration, rats were exposed to a 10% EtOH (1OE) solution as the only liquid source in their home cages for 4 days. For the next 14 days, animals were allowed free choice between 10E in tap water or tap water from graded glass tubes. At the end of this 14-day period, operant self-administration was initiated according to the sucrose fading technique (Samson, 1986) with minor modifications. Rats were restricted to 30 minutes of water per day for 2 consecutive days. On the night of the second day of water restriction, rats were placed in the operant chambers for a 12-15 hrs overnight session on an FR1 schedule (1 reinforcement of 0.1 ml per lever press) with 10% sucrose (10S) as reinforcer and both levers active. The next day, rats began the operant self-administration training. Animals were kept on water restriction for the next 4-5 days during which they received one 45 min session per day on an FR1 schedule with 10S as reinforcer and one active lever. They were then given free water in their home cages for the remainder of the experiment and were trained for 2-3 more of the above described sessions. The next day, sessions were shortened to 30 minutes and the ratio of responding was increased to FR3. EtOH was added to the sweet solution (10S10E) and rats received 3-4 sessions of this solution, followed by at least 20 sessions with 10E only. A minimum average of 0.3 g/kg EtOH consumption in 8 sessions prior to the beginning of any drug treatment was required. […]

[2] = Highest soluble concentration of DMPX in the injection vehicle; format: physicochemical; details: saline or isotonic; dissolved in warm saline; read-out: highest DMPX soluble concentration achieved
Experimental: as §1

[3] = DMPX 1 mg/kg ip, vs saline, p<0.03
[4] = DMPX 10 mg/kg ip, vs saline, p<0.02
[5] = DMPX 20 mg/kg ip, vs saline, p<0.05
[6] = DPCPX 0.125, 0.25, or 0.5 mg/kg ip, ANOVA NS

- solubility [2]: 10000 µg/mL (≈ 45.8 mM)
Structure (SMILES): C#CCn1c(=O)c2c(ncn2C)n(C)c1=O [DMPX, 3,7-Dimethyl-1-propargylxanthine]
- number of lever presses ([1]; DMPX 1 mg/kg ip, vs saline, p<0.02): significantly increased
- g/kg of EtOH intake [1, 3]: significantly increased
- number of EtOH reinforcements [1, 3]: significantly increased
- any of the measures (lever presses, EtOH reinforcements, g/kg EtOH) ([1]; DMPX 3 mg/kg ip, vs saline): did not significantly affect
- any of the measures (lever presses, EtOH reinforcements, g/kg EtOH) ([1]; DMPX 5 mg/kg ip, vs saline): did not significantly affect
- any of the measures (lever presses, EtOH reinforcements, g/kg EtOH) ([1]; DMPX 7 mg/kg ip, vs saline): did not significantly affect
- g/kg of EtOH consumption [1, 4]: significantly decreased
- number of lever presses [1, 4]: significantly decreased
- number of EtOH reinforcements ([1]; DMPX 10 mg/kg ip, vs saline, p<0.03): significantly decreased
- g/kg EtOH intake [1, 5]: decreased
- number EtOH reinforcements [1, 5]: significant effect
- EtOH self-administration, dose-effect function ([1]; DMPX 1-20 mg/kg ip): bimodal effect

Structure (SMILES): CCc1cc(Cl)c(OC)c(C(=O)NC[C@@H]2CCCN2CC)c1O [eticlopride]
- any of the analyzed measurements (lever presses, reinforcements, g/kg EtOH) ([1]; eticlopride 0.005 mg/kg sc, vs saline): did not significantly affect
- number of lever presses ([1]; eticlopride 0.007 mg/kg sc, vs saline, decrease, p<0.005): significant effects
- g/kg of EtOH consumption ([1]; eticlopride 0.007 mg/kg sc, vs saline, decrease, p<0.01): significant effects
- number of reinforcements ([1]; eticlopride 0.007 mg/kg sc, vs saline, decrease, p<0.02): significant effects
- number of lever presses ([1]; eticlopride 0.01 mg/kg sc, vs saline, decrease, p<0.0001): significant effects
- g/kg of EtOH consumption ([1]; eticlopride 0.01 mg/kg sc, vs saline, decrease, p<0.004): significant effects
- number of reinforcements ([1]; eticlopride 0.01 mg/kg sc, vs saline, decrease, p<0.007): significant effects
- EtOH self-administration, effect across doses ([1]; eticlopride 0.005-0.01 mg/kg sc): dose-dependently decreased
- EtOH self-administration, effect across doses ([1]; eticlopride 0.005-0.01 mg/kg sc, listed as Eticlopride): dose-dependently reduced

Structure (SMILES): CCCn1c(=O)c2[nH]c(C3CCCC3)nc2n(CCC)c1=O [DPCPX, 8-Cyclopentyl-1,3-dipropylxanthine]
- g/kg of EtOH consumption [1, 6]: no effect
- number of EtOH reinforcements [1, 6]: no effect
- number of lever presses [1, 6]: no effect
- EtOH self-administration, effect across doses ([1]; DPCPX 0.125-0.5 mg/kg ip): without effect; also recorded: did not affect
